In patent publication US20240180910A1, “METHOD FOR TREATING CANCER WITH A CHEMOTHERAPEUTIC MODIFIER” (Elion Oncology, Inc., priority 2022, published 2024):
Where two headings read alike, the source gives them in different places.

Assays:
[1] = cited from earlier work
[2] = cited from earlier work; for t1/2: arithmetic mean
clinical = conditions: human, in vivo
Experimental: (§1) To evaluate the safety, dose-limiting toxicities (DLTs), and maximum tolerated dose (MTD) of capecitabine administered to patients with advanced, refractory gastrointestinal tract (GI) tumors using a 7 days on +7 days off capecitabine regimen ˜24 hours after a single, fixed, oral 40 mg dose of eniluracil.
(§2) Eniluracil (40-50 mg) is orally administrated at Day 1. After 12-24 hours, capecitabine is orally administered. Capecitabine is given twice a day at 140-600 mg/day for a total of 7 days. Then the patient is rested for 7 days before receiving the next cycle which follows the above-described procedures. The cycles are repeated until either the patient has a complete response or when the disease progresses in the patient. A complete response means that the tumor is no longer present. Progression of the cancer means that the tumor starts enlarging or the tumor is no longer stable.
(§3) Primary Endpoints: • DLTs and incidences of AEs according to NCI CTCAE Version 5.0. • Concentrations of capecitabine, 5 FU, FBAL, 5′ DFCR, and 5′ DFUR in plasma, PK parameters will be estimated from concentration time data using noncompartmental methods, as data permit. • Concentrations of eniluracil in plasma; PK parameters will be estimated from concentration-time data using noncompartmental methods, as data permit. • 2.
(§4) Briefly, capecitabine was administered to patients with advanced, refractory gastrointestinal tract (GI) tumors using a 7 days on +7 days off capecitabine regimen ˜24 hours after a single, fixed, oral 40 mg dose of eniluracil.

[3] = colon cancer, adjuvant, XELODA 1250 mg/m^2/bid (n = 995), i.v. 5-FU/LV Mayo Clinic regimen (n = 974), cited from earlier work
[4] = system: patient-derived colon cancer xenograft CXF 280; conditions: for Minimum T/C: days 1-14, 22-35, Day 35
Experimental: This study was to assess the antitumor efficacy of eniluracil in combination with different doses of capecitabine in the patient-derived colon xenograft CXF 280 subcutaneously implanted in immunodeficient athymic nude mice.
The study consisted of an in vivo efficacy experiment with the patient-derived colon cancer xenograft CXF 280 implanted subcutaneously in athymic nude mice.
This experiment consisted of six groups with six animals each. Animals were dosed in monotherapy with capecitabine at 300 or at 30 mg/kg/day daily for 2 weeks with a one-week dosing break followed by another 2 weeks of daily dosing (14 days ON and 7 days OFF). In combination therapies, capecitabine was dosed at 30, 15 or 7.5 mg/kg/day on days 1-7, 15-21 and 29-35 (7 days ON and 7 days OFF) as well as with eniluracil at 10 mg/kg/day on days 1, 3, 5, 15, 17, 19, 29, 31, and 33.
Combination therapies with capecitabine and eniluracil scheduled for the same dosing day were administered with a six-hour dosing delay after dosing with eniluracil in order to ensure that all the eniluracil is eliminated in the mouse prior to capecitabine administration.
All therapies were administered via oral gavage (p.o.) over the course of 35 days followed by an observation period of one week until day 42 of the experiment.
Relative tumor volumes (RTVs) for Day x were calculated by dividing the absolute individual tumor volume on Day x (Tx) by the absolute individual tumor volume of the same tumor on the day of randomization (Tr) multiplied by 100%.
Tumor growth inhibition was determined by comparison of the median RTV of the test groups (T) with the vehicle control group (C) and was expressed as minimum T/C value in percent. The minimum T/C value recorded for a test group during an experiment represents the maximum antitumor efficacy for the respective treatment.

[5] = doses up to 50 g per day administered for seven days; cited from earlier work
[6] = human, in vivo
Experimental: as §1, §2, §3, §4

[7] = Clinical trial: plasma pharmacokinetics, capecitabine 7 days on + 7 days off ~24 hours after single oral 40 mg eniluracil; conditions: day 8
Experimental: as §1, §2, §3, §4

[8] = 2005 EMA for Xeloda, capecitabine alone 1250 mg/m^2
[9] = plasma, Day 14, after oral capecitabine 1255 mg/m^2, 8 cancer patients
[10] = plasma, Day 14, after oral capecitabine 1255 mg/m^2, 8 cancer patients, geometric mean
[11] = plasma, Day 14, after oral capecitabine 1255 mg/m^2, 8 cancer patients, median

Structure (SMILES): O=c1[nH]cc(F)c(=O)[nH]1 [5-FU, 5-Fluorouracil]
- AUC0-∞ [1, 8]: 2.03 µg·h/mL
- peak plasma concentrations (Cmax) [1, 8]: 0.95 µg/mL
- 5-FU Mean T1/2 ([2]; Capecitabine alone): 45.6 min
- exposure (AUC) ([2]; after capecitabine oral dosing at 1255 mg/m^2): approximately 1630 h*ng/mL
- t1/2 [2, 9]: 45.6 min
- AUC0-t [2, 10]: 1.62 µg·h/mL
- AUC0-∞ [2, 10]: 1.63 µg·h/mL
- Cmax [2, 10]: 0.709 µg/mL
- tmax [2, 11]: 2.00 h
- half-life (clinical; 5-FU Day 2 Mean T1/2, capecitabine daily dose 75 (with Eniluracil)): 216 min
- half-life (clinical; 5-FU Day 2 Mean T1/2, capecitabine daily dose 150 (with Eniluracil)): 201 min
- half-life (clinical; 5-FU Day 2 Mean T1/2, capecitabine daily dose 300 (with Eniluracil)): 212 min
- half-life (clinical; 5-FU Day 2 Mean T1/2, capecitabine daily dose 450 (with Eniluracil)): 343 min
- half-life (clinical; half-life (T1/2) of 5-FU at day 2, capecitabine in combination with eniluracil pretreatment, highest over doses): ≤ 343 min

Structure (SMILES): C[C@H]1O[C@@H](n2cc(F)c(N)nc2=O)[C@H](O)[C@@H]1O [5′-DFCR, 5′-deoxy-5-fluorocytidine]
- AUC0-∞ [1, 8]: 7.24 µg·h/mL
- peak plasma concentrations (Cmax) [1, 8]: 3.05 µg/mL
- time to peak plasma concentrations (tmax) [1, 8]: 2.00 h
- t1/2 [2, 9]: 78.6 min
- AUC0-t [2, 10]: 3.97 µg·h/mL
- AUC0-∞ [2, 10]: 5.21 µg·h/mL
- Cmax [2, 10]: 1.71 µg/mL
- tmax [2, 11]: 2.00 h

Structure (SMILES): C[C@H]1O[C@@H](n2cc(F)c(=O)[nH]c2=O)[C@H](O)[C@@H]1O [5′DFUR, doxifluridine]
- AUC0-∞ [1, 8]: 24.6 µg·h/mL
- peak plasma concentrations (Cmax) [1, 8]: 12.1 µg/mL
- time to peak plasma concentrations (tmax) [1, 8]: 2.00 h
- t1/2 [2, 9]: 39.6 min
- AUC0-t [2, 10]: 19.9 µg·h/mL
- AUC0-∞ [2, 10]: 21.7 µg·h/mL
- Cmax [2, 10]: 9.37 µg/mL

Structure (SMILES): CCCCCOC(=O)Nc1nc(=O)n([C@@H]2O[C@H](C)[C@@H](O)[C@H]2O)cc1F [Capecitabine, capecitabine]
- Abdominal pain upper, Grade 3/4 [3]: <1%
- Abdominal pain upper, Total [3]: 6%
- Abdominal pain, Grade 3/4 [3]: 2%
- Abdominal pain, Total [3]: 10%
- Alopecia, Total [3]: 6%
- Anorexia, Grade 3/4 [3]: <1%
- Anorexia, Total [3]: 9%
- Asthenia, Grade 3/4 [3]: <1%
- Asthenia, Total [3]: 9%
- Conjunctivitis, Grade 3/4 [3]: <1%
- Conjunctivitis, Total [3]: 5%
- Constipation, Total [3]: 6%
- Diarrhea, Grade 3/4 [3]: 11%
- Dizziness, Grade 3/4 [3]: <1%
- Dizziness, Total [3]: 5%
- Dysgeusia, Total [3]: 6%
- Dyspepsia, Grade 3/4 [3]: <1%
- Dyspepsia, Total [3]: 5%
- Erythema, Grade 3/4 [3]: 1%
- Erythema, Total [3]: 6%
- Fatigue, Grade 3/4 [3]: <1%
- Fatigue, Total [3]: 15%
- Hand-foot Syndrome, Grade 3/4 [3]: 17%
- Lethargy, Grade 3/4 [3]: <1%
- Lethargy, Total [3]: 10%
- Nausea, Grade 3/4 [3]: 2%
- Nausea, Total [3]: 33%
- Neutropenia, Grade 3/4 [3]: <1%
- Neutropenia, Total [3]: 2%
- Pyrexia, Grade 3/4 [3]: <1%
- Pyrexia, Total [3]: 4%
- Rash, Total [3]: 6%
- Stomatitis, Grade 3/4 [3]: 2%
- Stomatitis, Total [3]: 22%
- Vomiting, Grade 3/4 [3]: 2%
- Vomiting, Total [3]: 14%
- Diarrhea, Total ([3]; listed as XELODA): 46%
- Hand-foot Syndrome, Total ([3]; listed as XELODA): 60%
- Diarrhea, Total ([3]; listed as Xeloda): about 46%
- Hand-foot Syndrome, Total ([3]; listed as Xeloda): about 60%
- AUC0-∞ [1, 8]: 7.75 µg·h/mL
- peak plasma concentrations (Cmax) [1, 8]: 4.67 µg/mL
- time to peak plasma concentrations (tmax) [1, 8]: 1.50 h
- Minimum T/C ([4]; Group 2: capecitabine 300 mg/kg/day p.o.): 4.5%
- Minimum T/C ([4]; Group 3: capecitabine 30 mg/kg/day p.o.): 34.9%
- antitumor activity (in words) ([4]; monotherapy with capecitabine at 300 mg/kg/day in mice): high antitumor activity
- t1/2 [2, 9]: 51 min
- AUC0-t [2, 10]: 7.29 µg·h/mL
- AUC0-∞ [2, 10]: 7.40 µg·h/mL
- Cmax [2, 10]: 3.99 µg/mL
- tmax [2, 11]: 1.50 h

Structure (SMILES): C#Cc1c[nH]c(=O)[nH]c1=O [Eniluracil, 5-Ethynyluracil]
- safety [5]: safe
- metabolism of capecitabine into FBAL (AUC and Cmax of FBAL) [6]: completely blocked

Structure (SMILES): NCC(F)C(=O)O (stereo not drawn) [FBAL, α-fluoro-β-alanine]
- AUC0-∞ ([1]; in vivo, 1250 mg/m2): 36.3 µg·h/mL
- peak plasma concentrations (Cmax) ([1]; in vivo, 1250 mg/m2): 5.46 µg/mL
- time to peak plasma concentrations (tmax) ([1]; in vivo, 1250 mg/m2): 3.34 h
- effects of eniluracil on FBAL metabolism [7]: no longer apparent
- AUC0-t ([2]; human, in vivo, po, 1255 mg/m2): 30.0 µg·h/mL
- AUC0-∞ ([2]; human, in vivo, po, 1255 mg/m2): 35.2 µg·h/mL
- Cmax ([2]; human, in vivo, po, 1255 mg/m2): 5.32 µg/mL
- exposure (AUC) ([2]; human, in vivo, po, 1255 mg/m2): 30-35,000 h*ng/mL
- tmax ([2]; human, in vivo, po, 1255 mg/m2): 3.34 h
- Tmax of FBAL ([2]; human, in vivo): 3.24 h
- t1/2 [2, 9]: 194 min

Structure (SMILES): O=C1NCC(F)C(=O)N1 (centres unmarked) [FUH2]
- t1/2 [2, 9]: 68.4 min
- AUC0-t [2, 10]: 1.20 µg·h/mL
- AUC0-∞ [2, 10]: 2.15 µg·h/mL
- Cmax [2, 10]: 0.442 µg/mL
- tmax [2, 11]: 2.28 h
